Measured values published in US20220288001A1, “CREATINE FOR IMMUNOTHERAPY” (The Regents of the University of California, priority 2019, published 2022).

Tests used:
[1] = tested on: B16-OVA tumors; experiment: B16-OVA tumors in immunodeficient NSG mice, creatine supplementation; assay type: in vivo, mouse; conditions: i.p. creatine
[2] = tested on: tumor-infiltrating CD8 T cells; experiment: Flow cytometry phenotype of tumor-infiltrating CD8 T cells in B16-OVA model; assay type: in vivo, mouse; conditions: B16-OVA tumors collected day 17; creatine supplementation
Excerpt: Fluorochrome-conjugated monoclonal antibodies specific for mouse CD45.2 (cat #109820; clone 104), TCRβ (cat #109220; clone H57-597), CD4 (cat #100531; clone RM4-5), IFN-γ (cat #505806; clone XMG1.2), Granzyme B (cat #372208; clone QA16A02). TCR Vα2 (cat #127809; clone B20.1), CD69 (cat #104508; clone H1.2F3), CD25 (cat #102006; clone PC61), CD8 (cat #100732: clone 53-6.7), CD44 (cat #103030; clone IM7), LAG-3 (CD223) (cat #125207; clone C9B7W), and Tim-3 (CD366) (cat #119705; clone RMT3-23) were purchased from BioLegend. […] Stained cells were analyzed using a MACSQuant Analyzer 10 Flow Cytometer (Miltenyi Biotee). […] To assess gene expression, CD45^+ immune cells were sorted from TIIs using flow cytometry then analyzed for CrT mRNA expression using qPCR. To assess T cell activation status, TIIs were analyzed for surface activation marker (CD25 and PD-1) expression using flow cytometry. […] TIIs were analyzed for intracellular Granzyme B expression using flow cytometry. To assess T cell cytokine production, Tis were stimulated with PMA (50 ng/ml)+Ionomycine (500 ng/ml) in the presence of GolgiStop (4 μl per 6 ml culture) for 4 hours, then analyzed for intracellular cytokine (IL-2 and IFN-γ) production using flow cytometry. […]

[3] = Creatine quantification in serum after creatine supplementation; assay type: in vivo, mouse; conditions: C57BL/6J WT mice, B16-OVA model; i.p. injection or dietary supplementation (0.4 g/kg body weight), both routes
Excerpt: A Creatine Assay Kit (Cat #ab65339, Abcam) was utilized to quantify creatine, both in vivo and in vitro, following the manufacturer's instructions. For the in vivo study, whole blood was collected (retro-orbital bleeding) from the experimental mice in a capillary tube, and the isolated serum was immediately used for the assay following the manufacturer's directions. For the in vitro study, cells were spun to remove culture media and suspended in cold PBS. Creatine was then quantified following the manufacturer's directions. The total amount of creatine detected was then normalized to cell numbers.
For creatine supplementation via i.p. injection, ceatine monohydrate (cat #C3630, Sigma-Aldrich) was dissolved in sterile PBS and i.p. injected to experimental animals daily at a dose of 10.5 mg per animal per injection.
For creatine supplementation via diet, experimental animals were fed a creatine-enriched isocaloric diet which is a customized formulation based on PicoLab Rodent Diet 20 enriched in creatine (3 g/Kg diet, cat #TD.170082, Envigo Teklad Diet). The diet was designed to reflect the safe daily dose of creatine recommended for enhanced athletic performance in humans (Mayo Clinic data). Non-treated mice (Ctrl) were fed a control diet prepared in a manner similar to that of the creatine-enriched diet.

[4] = tested on: skeletal muscle fibers; experiment: Histological analysis of skeletal muscle (H&E, muscle-fiber diameter); assay type: in vivo, mouse; conditions: mice receiving creatine supplements (i.p. or food); biceps femoris
Procedure: Skeletal muscle (biceps femoris) harvested from control (Ctrl) and experimental (Creatine ip and Creatine food) mice were fixed in 10% neutral-buffered formalin and embedded in paraffin for sectioning (5-μm thickness), followed by H&E staining using standard procedures (UCLA Translational Pathology Core Laboratory). The sections were imaged using an Olympus BX51 upright microscope equipped with a Macrofire® CCD camera (Optronics®). The muscle-fiber diameter was assessed with the use of an ImageJ software (NIH).

[5] = humans (Kreider et al., 2017); cited from earlier work
[6] = tested on: B16-OVA tumors; experiment: B16-OVA tumors in C57BL/6J WT mice depleted of T cells by anti-CD3 antibody, creatine supplementation; assay type: in vivo, mouse; conditions: B16-OVA in C57BL/6J WT mice depleted of T cells via i.p. anti-CD3 depletion antibody
Procedure: To establish solid tumors, mice were s.c. injected above the right flank with 1×10^6 B16-OVA or 3×10^5 MC38 cells. Before injection, cells in log phase of growth were harvested and suspended in phosphate-buffered saline (PBS), and 50 μl of cell suspension were injected subcutaneously above the flank. Tumor size was periodically measured with a digital Vernier caliper (Thermo Fisher Scientific). For creatine supplementation via i.p. injection, […] monohydrate (cat #C3630, Sigma-Aldrich) was dissolved in sterile PBS and i.p. injected to experimental animals daily at a dose of 10.5 mg per animal per injection. To study the effects of creatine supplementation on suppressing tumor growth, B6 mice were inoculated with B16-OVA tumor cells and monitored for tumor growth, with or without receiving creatine supplementation via i.p. injection or diet. […] To study the T cell-dependence of creatine supplementation induced anti-tumor effects, B6-OVA tumor growth was monitored and compared in B6 mice receiving i.p. injection of an anti-CD3 T cell depleting antibody ([…]; 100 μg/mouse/injection, twice per week) or an isotype control antibody (clone LTF-2, 100 μg/mouse/injection, twice per week), with or without i.p. supplement of creatine.

Structure (SMILES): CN(CC(=O)O)C(=N)N [creatine]
- tumor growth [1]: could not be suppressed
- “exhaustion-prone” phenotype cells (PD-1hiCD62Llo) among tumor-infiltrating CD8 T cells [2]: significant reduction
- creatine concentrations in blood (serum) [3]: elevated creatine concentrations in blood to a similar level
- skeletal muscle fiber size [4]: enlargement of skeletal muscle fibers
- safety of long-term supplementation [5]: well-documented safety
- tumor growth [6]: could not be suppressed
